Experiments:
[1] = system: Plasmodium falciparum 3D7 asexual blood stage; test: EC50 asexual blood stage growth; conditions: serum: 0.5% AlbuMAX
Description: (§1)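 The Reference Compound Library was tested by 10-point 3-fold dose response against P. cynomolgi Berok K4 asexual blood stages (SYBR proliferation assay, mefloquine background control). Culture medium contained 0.5% AlbuMAX or 20% M. fascicularis serum. P. falciparum 3D7 was tested in a 72-h SYBR Green assay with 0.5% AlbuMAX. Values are geometric mean EC50 over independent experiments; 10 uM is the top dose.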

[2] = system: Plasmodium cynomolgi Berok K4 asexual blood stage; test: EC50 asexual blood stage growth
Description: as §1

[3] = serum: 20% M. fascicularis serum

Row | Compound | EC50 asexual blood stage growth [1] | EC50 asexual blood stage growth ([2]; serum: 0.5% AlbuMAX) | EC50 asexual blood stage growth [2, 3]
1 | CC1CCC2C(C)C(=O)OC3OC4(C)CCC1C32OO4 (stereo not drawn) [Artemisinin] | 94.8 nM | 7.3 nM | 9.4 nM
2 | CC1CCC2C(C)C(N3CCS(=O)(=O)CC3)OC3OC4(C)CCC1C32OO4 (stereo not drawn) [Artemisone] | 5 nM | 1 nM | 0.6 nM
3 | CC1CCC2C(C)C(O)OC3OC4(C)CCC1C32OO4 (stereo not drawn) [Artenimol] | 6.5 nM | 0.6 nM | 0.5 nM
4 | CC(C)(N)CNC(=O)CC1CCC2(CC1)OOC1(O2)C2CC3CC(C2)CC1C3 (stereo not drawn) [Arterolane] | 7.8 nM | 1.4 nM | 1 nM
5 | CC1CCC2C(C)C(OC(=O)CCC(=O)O)OC3OC4(C)CCC1C32OO4 (stereo not drawn) [Artesunate] | 41.3 nM | 6.2 nM | 3 nM
6 | O=C1C(O)=C([C@H]2CC[C@H](c3ccc(Cl)cc3)CC2)C(=O)c2ccccc21 [Atovaquone] | 0.9 nM | 1 nM | 1.7 nM
7 | CCN(CC)CCCC(C)Nc1ccnc2cc(Cl)ccc12 (stereo not drawn) [Chloroquine] | 82.2 nM | 183 nM | 32.8 nM
8 | CC1Cc2c([nH]c3cc(Cl)c(F)cc23)C2(N1)C(=O)Nc1ccc(Cl)cc12 (stereo not drawn) [Cipargamin] | 1.4 nM | 3.3 nM | 15.4 nM
9 | CC1CCCC(CC2Cc3cc(O)cc(O)c3C(=O)O2)O1 (stereo not drawn) [Cladosporin] | 75.8 nM | 124 nM | 1430 nM
10 | CCC[C@@H]1C[C@@H](C(=O)N[C@@H]([C@H]2O[C@H](SC)[C@H](O)[C@@H](O)[C@H]2O)[C@H](C)Cl)N(C)C1 [Clindamycin] | > 10000 nM | > 10000 nM | 9210 nM
11 | CC1CC(C)C(=O)C(C(O)CC2CC(=O)NC(=O)C2)C1 (stereo not drawn) [Cyclohexamide] | 282 nM | 35.2 nM | 40.1 nM
12 | Cc1cc(Nc2ccc(C(F)(F)F)nc2)n2nc(C(C)(F)F)nc2n1 [DSM421] | 35.1 nM | 60.5 nM | 59.5 nM
13 | Nc1ccc(S(=O)(=O)c2ccc(N)cc2)cc1 [Dapsone] | > 10000 nM | > 10000 nM | > 10000 nM
14 | CC(=O)N(O)CCCCCNC(=O)CCC(=O)N(O)CCCCCNC(=O)CCC(=O)N(O)CCCCCN [Deferoxamine] | > 10000 nM | > 10000 nM | > 10000 nM
15 | CC12CCC3C(CC=C4CC(OS(=O)(=O)O)CCC43C)C1CCC2=O (stereo not drawn) [Dehydroepiandrosterone sulphate] | > 10000 nM | > 10000 nM | > 10000 nM
16 | CC1CCC2C(C)C(O)OC3OC4(C)CCC1C32O4 (stereo not drawn) [Deoxydihydroartemisinin] | > 10000 nM | > 10000 nM | > 10000 nM
17 | C[C@H]1c2cccc(O)c2C(=O)C2=C(O)[C@]3(O)C(=O)C(C(N)=O)=C(O)[C@@H](N(C)C)C3[C@@H](O)C21 (stereo partly drawn) [Doxycycline] | 9930 nM | 9360 nM | 8350 nM
18 | CN(C)CC1=C(CNc2ccnc3cc(Cl)ccc23)C=[C-]C1.[C-]1=CC=CC1.[Fe+2] [Ferroquine] | 11.5 nM | 43.3 nM | 36.2 nM

Row | Compound | EC50 asexual blood stage growth [1] | EC50 asexual blood stage growth ([2]; serum: 0.5% AlbuMAX) | EC50 asexual blood stage growth [2, 3]
19 | O=CN(O)CCCP(=O)(O)O [Fosmidomycin] | > 10000 nM | > 10000 nM | 6690 nM
20 | N=C(N)c1ccc(-c2ccc(-c3ccc(C(=N)N)cc3)o2)cc1 [Furamidine] | 540 nM | 4670 nM | 864 nM
21 | CCCCN(CCCC)CCC(O)c1cc2c(Cl)cc(Cl)cc2c2cc(C(F)(F)F)ccc12 (stereo not drawn) [Halofantrine] | 3.7 nM | 0.5 nM | 0.5 nM
22 | CCN(CCO)CCCC(C)Nc1ccnc2cc(Cl)ccc12 (stereo not drawn) [Hydroxychloroquine] | 427 nM | 3370 nM | 209 nM
23 | CC1(C)c2nc(-c3ccc(F)cc3)c(Nc3ccc(F)cc3)n2CCN1C(=O)CN [KAF-156] | 24.4 nM | 3.6 nM | 36.6 nM
24 | CCCCN(CCCC)CC(O)c1cc(Cl)cc2c1-c1ccc(Cl)cc1C2=Cc1ccc(Cl)cc1 (stereo not drawn) [Lumefantrine] | 30.5 nM | 23.3 nM | 105 nM
25 | CC(C)(C)c1cc(O)c(CN)c(C(C)(C)C)c1.Cl [MK-4815] | 574 nM | 49.4 nM | 93.8 nM
26 | CS(=O)(=O)c1ccc(-c2cnc(N)c(-c3ccc(C(F)(F)F)nc3)c2)cc1 [MMV048] | 127 nM | 59.8 nM | 49 nM
27 | CN(Cc1cnc2nc(N)nc(N)c2n1)c1ccc(C(=O)N[C@@H](CCC(=O)O)C(=O)O)cc1 [Methotrexate] | 138 nM | 232 nM | 168 nM
28 | CN(C)c1ccc2nc3ccc(=[N+](C)C)cc-3sc2c1 [Methylene blue] | 17.8 nM | 5.4 nM | 6 nM
29 | CC(=O)N[C@@H](C(=O)O)C(C)(C)S [N-acetyl-D-penicillamine] | > 10000 nM | 7560 nM | > 10000 nM
30 | CC(C)(C)NCc1cc(Nc2ccnc3cc(Cl)ccc23)c2c(c1O)CCCC2 [Naphthoquine] | 8.7 nM | 23.2 nM | 68.3 nM
31 | CONC(=N)c1ccc(-c2ccc(-c3ccc(C(=N)NOC)cc3)o2)cc1 [Pafuramidine] | > 10000 nM | > 10000 nM | > 10000 nM
32 | N=C(N)c1ccc(OCCCCCOc2ccc(C(=N)N)cc2)cc1 [Pentamidine] | 139 nM | 212 nM | 389 nM
33 | CN(C)Cc1ccccc1CNc1ccnc2cc(Cl)ccc12 [Phenylequine] | 7.4 nM | 36.6 nM | 40.7 nM
34 | Clc1ccc2c(N3CCN(CCCN4CCN(c5ccnc6cc(Cl)ccc56)CC4)CC3)ccnc2c1 [Piperaquine] | 299 nM | 68.2 nM | 35.3 nM
35 | COc1cc(NC(C)CCCN)c2ncccc2c1 (stereo not drawn) [Primaquine] | 5750 nM | 3100 nM | 9000 nM
36 | CC(C)N=C(N)N=C(N)Nc1ccc(Cl)cc1 [Proguanil] | 2740 nM | > 10000 nM | > 10000 nM
